The target in the assay is Cell division control protein 42 homolog (Homo sapiens) (UniProt P60953). The experiment in a line: inhibition of GTPgammaS loading onto Cdc42, late-stage follow-up, orthogonal assay for Ras-related GTPase inhibitor project, biochemical, purified His-Cdc42, PAK-PBD pull-down, Western blot (AID 2374). The note with it: His-Cdc42 GTPgS loading, at 10 µM, stronger effect = higher value. Background: In western blotting, separated proteins are transferred to a membrane and probed.

We go through 1 compound from PubChem BioAssay AID2374 (NMMLSC, 2010).

Chain of Cell division control protein 42 homolog (Homo sapiens) (P60953 whole entry, looked up): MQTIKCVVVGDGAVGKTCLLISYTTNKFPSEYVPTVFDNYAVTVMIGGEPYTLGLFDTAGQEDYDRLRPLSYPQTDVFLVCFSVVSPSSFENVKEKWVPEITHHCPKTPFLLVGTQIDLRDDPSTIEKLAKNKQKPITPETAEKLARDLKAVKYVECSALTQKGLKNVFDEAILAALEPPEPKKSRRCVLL

In the case of `COc1ccc(C2CC(c3ccccc3)=NN2c2ccc(S(N)(=O)=O)cc2)cc1` (stereo not drawn), the inhibition (commonly how much of the control response was suppressed) was 60%. The inhibition (at 0.1 uM GTPgS) turned out to be 96%. This compound returned an inhibition (at 0.5 uM GTPgS) of 94%.
